Results as given in patent publication US9808003B2, “Herbicidally active 2-(substituted-phenyl)-cyclopentane-1,3-dione compounds and derivatives thereof” (Syngenta Limited, priority 2013, dated 2017).

How the values were obtained:
Assay type in all cases: in vivo
Setaria viridis (SETVI) = assay: Test 1B glasshouse assay, post-emergence herbicidal activity against grassy weeds; conditions: 14 DAA
Summary of the method: (§1)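 Post-emergence spray, 14-day-old plants, glasshouse 22/16 °C day/night, 16 h light, 65% humidity. Test herbicide typically 60, 90 or 120 g/ha; cloquintocet-mexyl safener 50 g/ha optional at 60, included at 90/120. Scored visually 14 DAA, 0–100% damage, 2 reps averaged.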

[1] = tested on: Alopecurus myosuroides (ALOMY); assay: as above; conditions: 14 DAA
Summary of the method: as §1

Poa annua (POAAN) = assay: as above; conditions: 14 DAA
Summary of the method: as §1

[2] = tested on: Lolium multiflorum (LOLMU); assay: as above; conditions: 14 DAA
Summary of the method: as §1

Avena fatua (AVEFA) = assay: as above; conditions: 14 DAA
Summary of the method: as §1

Spring Wheat “Teal” = assay: Test 1B glasshouse assay, post-emergence herbicidal activity against cereal crops; conditions: 14 DAA
Summary of the method: (§2)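 Technical compound in IF50 with acetone, diluted into 0.5% v/v Adigor, sprayed post-emergence on 14-day glasshouse plants (22/16 °C, 16 h light, 65% humidity), typically at 60, 90 or 120 g/ha, with or without 50 g/ha cloquintocet-mexyl safener. Phytotoxicity scored visually 14 DAA (0–100%), mean of two replicates.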

[3] = tested on: Spring Barley “Harrington”; assay: as above; conditions: 14 DAA
Summary of the method: as §2

Winter Barley “Suzuka” = assay: as above; conditions: 14 DAA
Summary of the method: as §2

Winter Wheat “Hereward” = assay: as above; conditions: 14 DAA
Summary of the method: as §2

[4] = tested on: grassy monocotyledonous weeds; assay: Test 1B glasshouse assay, post-emergence, comparison of separated enantiomers, weeds overall; conditions: chiral-column-separated enantiomers, A98 vs A99 and A100 vs A101, Biological Example 1B
Procedure: Biological Example 1B tests the herbicidal activity of“technical” compounds (i.e. compounds not previously formulated before the test), as the herbicides under test.
An “instant formulation”, known as the “IF50”, containing 50 g/liter (i.e. 5% w/v) of the “technical” (i.e. unformulated) active ingredient (i.e. the herbicide under test), is prepared by dissolving the active ingredient in a mixture of organic solvents and emulsifier, details of which are provided in the Table below. […]
The test plants are then grown on under controlled conditions in the glasshouse (at 22/16° C., day/night; 16 hours light; 65% humidity) and are watered twice daily. 14 days after application of the test herbicide, the test is evaluated visually for percentage phytotoxicity to the plant (where 100%=total damage to plant; 0%=no damage to plant). […]
Herbicidal activity (phytotoxicity) is evaluated visually, and an assessed percentage phytotoxicity score is given for each herbicidal application on each plant species (with 100%=total damage to plant; 0%=no damage to plant; the assessment is recorded in increments of 1%). […]

[5] = 60 g/ha herbicide, 0 g/ha cloquintocet-mexyl, test result no. 1 (T1)
[6] = 60 g/ha herbicide, 50 g/ha cloquintocet-mexyl, test result no. 1 (T1)
[7] = 60 g/ha herbicide, 50 g/ha cloquintocet-mexyl, test result no. 2 (T2)
[8] = 90 g/ha herbicide, 50 g/ha cloquintocet-mexyl, test result no. 2 (T2)
[9] = 120 g/ha herbicide, 50 g/ha cloquintocet-mexyl, test result no. 2 (T2)

SMILES: Cc1cc(-n2cc(Cl)cn2)cc(C)c1C1C(=O)C[C@@H](CCNC(=O)c2ccccn2)C1=O (stereo partly drawn) [Compound A98, N-[2-[(1R)-3-[4-(4-chloropyrazol-1-yl)-2,6-dimethyl-phenyl]-2,4-dioxo-cyclopentyl]ethyl]pyridine-2-carboxamide]
- Post-emergence herbicidal activity, percentage phytotoxicity, SETVI (Setaria viridis (SETVI); [5]): 94 (T1) %
- Post-emergence herbicidal activity, percentage phytotoxicity, SETVI (Setaria viridis (SETVI); [6]): 97 (T1); %
- Post-emergence herbicidal activity, percentage phytotoxicity, SETVI (Setaria viridis (SETVI); [7]): 100 (T2) %
- Post-emergence herbicidal activity, percentage phytotoxicity, SETVI (Setaria viridis (SETVI); [8]): 100 (T2) %
- Post-emergence herbicidal activity, percentage phytotoxicity, SETVI (Setaria viridis (SETVI); [9]): 100 (T2) %
- Post-emergence herbicidal activity, percentage phytotoxicity, ALOMY [1, 5]: 80 (T1) %
- Post-emergence herbicidal activity, percentage phytotoxicity, ALOMY [1, 6]: 80 (T1); %
- Post-emergence herbicidal activity, percentage phytotoxicity, ALOMY [1, 7]: 78 (T2) %
- Post-emergence herbicidal activity, percentage phytotoxicity, ALOMY [1, 8]: 88 (T2) %
- Post-emergence herbicidal activity, percentage phytotoxicity, ALOMY [1, 9]: 97 (T2) %
- Post-emergence herbicidal activity, percentage phytotoxicity, POAAN (Poa annua (POAAN); [5]): 78 (T1) %
- Post-emergence herbicidal activity, percentage phytotoxicity, POAAN (Poa annua (POAAN); [6]): 75 (T1); %
- Post-emergence herbicidal activity, percentage phytotoxicity, POAAN (Poa annua (POAAN); [7]): 75 (T2) %
- Post-emergence herbicidal activity, percentage phytotoxicity, POAAN (Poa annua (POAAN); [8]): 78 (T2) %
- Post-emergence herbicidal activity, percentage phytotoxicity, POAAN (Poa annua (POAAN); [9]): 83 (T2) %
- Post-emergence herbicidal activity, percentage phytotoxicity, LOLMU [2, 5]: 95 (T1) %
- Post-emergence herbicidal activity, percentage phytotoxicity, LOLMU [2, 6]: 95 (T1); %
- Post-emergence herbicidal activity, percentage phytotoxicity, LOLMU [2, 7]: 100 (T2) %
- Post-emergence herbicidal activity, percentage phytotoxicity, LOLMU [2, 8]: 100 (T2) %
- Post-emergence herbicidal activity, percentage phytotoxicity, LOLMU [2, 9]: 100 (T2) %
- Post-emergence herbicidal activity, percentage phytotoxicity, AVEFA (Avena fatua (AVEFA); [5]): 100 (T1) %
- Post-emergence herbicidal activity, percentage phytotoxicity, AVEFA (Avena fatua (AVEFA); [6]): 100 (T1); %
- Post-emergence herbicidal activity, percentage phytotoxicity, AVEFA (Avena fatua (AVEFA); [7]): 100 (T2) %
- Post-emergence herbicidal activity, percentage phytotoxicity, AVEFA (Avena fatua (AVEFA); [8]): 100 (T2) %
- Post-emergence herbicidal activity, percentage phytotoxicity, AVEFA (Avena fatua (AVEFA); [9]): 100 (T2) %
- Post-emergence herbicidal activity against cereal crops, percentage phytotoxicity, Spring Wheat “Teal” (Spring Wheat “Teal”; [5]): 30 (T1) %
- Post-emergence herbicidal activity against cereal crops, percentage phytotoxicity, Spring Wheat “Teal” (Spring Wheat “Teal”; [6]): 10 (T1); %
- Post-emergence herbicidal activity against cereal crops, percentage phytotoxicity, Spring Wheat “Teal” (Spring Wheat “Teal”; [7]): 5 (T2) %
- Post-emergence herbicidal activity against cereal crops, percentage phytotoxicity, Spring Wheat “Teal” (Spring Wheat “Teal”; [8]): 13 (T2) %
- Post-emergence herbicidal activity against cereal crops, percentage phytotoxicity, Spring Wheat “Teal” (Spring Wheat “Teal”; [9]): 20 (T2) %
- Post-emergence herbicidal activity against cereal crops, percentage phytotoxicity, Spring Barley “Harrington” [3, 5]: 33 (T1) %
- Post-emergence herbicidal activity against cereal crops, percentage phytotoxicity, Spring Barley “Harrington” [3, 6]: 10 (T1); %
- Post-emergence herbicidal activity against cereal crops, percentage phytotoxicity, Spring Barley “Harrington” [3, 7]: 4 (T2) %
- Post-emergence herbicidal activity against cereal crops, percentage phytotoxicity, Spring Barley “Harrington” [3, 8]: 5 (T2) %
- Post-emergence herbicidal activity against cereal crops, percentage phytotoxicity, Spring Barley “Harrington” [3, 9]: 15 (T2) %
- Post-emergence herbicidal activity against cereal crops, percentage phytotoxicity, Winter Barley “Suzuka” (Winter Barley “Suzuka”; [5]): 75 (T1) %
- Post-emergence herbicidal activity against cereal crops, percentage phytotoxicity, Winter Barley “Suzuka” (Winter Barley “Suzuka”; [6]): 13 (T1); %
- Post-emergence herbicidal activity against cereal crops, percentage phytotoxicity, Winter Barley “Suzuka” (Winter Barley “Suzuka”; [7]): 8 (T2) %
- Post-emergence herbicidal activity against cereal crops, percentage phytotoxicity, Winter Barley “Suzuka” (Winter Barley “Suzuka”; [8]): 9 (T2) %
- Post-emergence herbicidal activity against cereal crops, percentage phytotoxicity, Winter Barley “Suzuka” (Winter Barley “Suzuka”; [9]): 40 (T2) %
- Post-emergence herbicidal activity against cereal crops, percentage phytotoxicity, Winter Wheat “Hereward” (Winter Wheat “Hereward”; [5]): 35 (T1) %
- Post-emergence herbicidal activity against cereal crops, percentage phytotoxicity, Winter Wheat “Hereward” (Winter Wheat “Hereward”; [6]): 13 (T1); %
- Post-emergence herbicidal activity against cereal crops, percentage phytotoxicity, Winter Wheat “Hereward” (Winter Wheat “Hereward”; [7]): 9 (T2) %
- Post-emergence herbicidal activity against cereal crops, percentage phytotoxicity, Winter Wheat “Hereward” (Winter Wheat “Hereward”; [8]): 13 (T2) %
- Post-emergence herbicidal activity against cereal crops, percentage phytotoxicity, Winter Wheat “Hereward” (Winter Wheat “Hereward”; [9]): 23 (T2) %
- herbicidal activity against grassy monocotyledonous weeds compared with the compound of opposite stereochemistry [4]: more potent herbicidal activity
